# Structures can show the parent of a compound that is named as a salt.
# Molecular target: T1, human liver glycogen phosphorylase (Homo sapiens, UniProt P06737)
# T1 construct: made in house; host or cells: Sf9 insect cells (suspension of disrupted cells, diluted in BES buffer, not purified)
# T1 sequence (P06737 1-847): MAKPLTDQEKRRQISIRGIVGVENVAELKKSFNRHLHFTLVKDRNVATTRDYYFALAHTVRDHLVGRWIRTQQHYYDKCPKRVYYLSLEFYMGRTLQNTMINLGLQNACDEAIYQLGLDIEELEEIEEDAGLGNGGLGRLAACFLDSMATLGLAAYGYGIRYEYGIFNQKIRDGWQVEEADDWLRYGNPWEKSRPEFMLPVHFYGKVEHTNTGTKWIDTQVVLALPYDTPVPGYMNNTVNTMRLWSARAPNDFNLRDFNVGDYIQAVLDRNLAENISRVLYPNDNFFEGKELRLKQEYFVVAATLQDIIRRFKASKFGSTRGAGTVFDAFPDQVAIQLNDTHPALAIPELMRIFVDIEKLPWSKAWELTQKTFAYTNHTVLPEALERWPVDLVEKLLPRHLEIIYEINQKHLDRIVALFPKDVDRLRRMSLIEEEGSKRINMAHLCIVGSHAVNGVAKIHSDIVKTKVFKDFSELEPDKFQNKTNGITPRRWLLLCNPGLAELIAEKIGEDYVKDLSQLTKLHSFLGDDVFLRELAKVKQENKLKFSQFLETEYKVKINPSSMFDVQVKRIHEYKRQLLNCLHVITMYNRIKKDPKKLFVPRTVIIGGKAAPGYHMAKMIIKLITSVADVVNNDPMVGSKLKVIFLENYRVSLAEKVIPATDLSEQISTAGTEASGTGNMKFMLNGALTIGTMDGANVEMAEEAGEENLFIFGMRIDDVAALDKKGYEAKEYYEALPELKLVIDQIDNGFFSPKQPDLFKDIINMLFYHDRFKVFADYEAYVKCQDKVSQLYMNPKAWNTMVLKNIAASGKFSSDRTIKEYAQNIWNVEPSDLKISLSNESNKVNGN
# Assay: Liver glycogen phosphorylase activity, forward reaction system (NADPH detection at 340 nm)
# Format: biochemical
# Settings: enzyme inhibitory activity against recombinant human liver glycogen phosphorylase (Sf9 cell lysate), room temperature, 75 minutes
# Procedure, shortened: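 Recombinant human liver glycogen phosphorylase from Sf9 lysate, run in forward direction with glycogen and phosphate substrate plus glucose, coupled via phosphoglucomutase/G6PDH to NADPH formation. BES buffer pH 6.8, room temperature, 75 min; A340 change minus blank gives activity. IC50 from percent inhibition vs DMSO control.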
row,SMILES,IC50 [nM]
1,"COc1ccc(-c2nnsc2CNC(=O)c2cc(NC(=O)c3cc(F)c(F)cc3Cl)[nH]n2)cc1 [Example 1-69, 5-(2-chloro-4,5-difluoro-benzoylamino)-1H-pyrazole-3-carboxylic acid [4-(4-methoxy-phenyl)-[1,2,3]thiadiazol-5-ylmethyl]-amide]",< 100
2,"Cc1noc(-c2noc(C)c2CNC(=O)c2cc(NC(=O)c3cc(F)c(F)cc3Cl)[nH]n2)n1 [Example 1-70, 5-(2-chloro-4,5-difluoro-benzoylamino)-1H-pyrazole-3-carboxylic acid [5-methyl-3-(3-methyl-[1,2,4]oxadiazol-5-yl)-isoxazol-4-ylmethyl]-amide]",< 100
3,"Cc1noc(-c2nc(C)oc2CNC(=O)c2cc(NC(=O)c3cc(F)c(F)cc3Cl)[nH]n2)n1 [Example 1-71, 5-(2-chloro-4,5-difluoro-benzoylamino)-1H-pyrazole-3-carboxylic acid [2-methyl-4-(3-methyl-[1,2,4]oxadiazol-5-yl)-oxazol-5-ylmethyl]-amide]",< 100
4,"O=C(NCc1nnc(-c2cccc(F)c2)o1)c1cc(NC(=O)c2cc(F)c(F)cc2Cl)[nH]n1 [Example 1-72, 5-(2-chloro-4,5-difluoro-benzoylamino)-1H-pyrazole-3-carboxylic acid [5-(3-fluoro-phenyl)-[1,3,4]oxadiazol-2-ylmethyl]-amide]",< 100
5,"O=C(NCc1nnc(Cc2ccccc2)o1)c1cc(NC(=O)c2cc(F)c(F)cc2Cl)[nH]n1 [Example 1-74, 5-(2-chloro-4,5-difluoro-benzoylamino)-1H-pyrazole-3-carboxylic acid (5-benzyl-[1,3,4]oxadiazol-2-ylmethyl)-amide]",< 100
6,"Cn1cccc1-c1nnc(CNC(=O)c2cc(NC(=O)c3cc(F)c(F)cc3Cl)[nH]n2)o1 [Example 1-75, 5-(2-chloro-4,5-difluoro-benzoylamino)-1H-pyrazole-3-carboxylic acid [5-(1-methyl-1H-pyrrol-2-yl)-[1,3,4]oxadiazol-2-ylmethyl]-amide]",< 100
7,"Cc1cc(-c2nnc(CNC(=O)c3cc(NC(=O)c4cc(F)c(F)cc4Cl)[nH]n3)o2)[nH]n1 [Example 1-76, 5-(2-chloro-4,5-difluoro-benzoylamino)-1H-pyrazole-3-carboxylic acid [5-(5-methyl-2H-pyrazol-3-yl)-[1,3,4]oxadiazol-2-ylmethyl]-amide]",< 100
8,"O=C(NCc1nnc(-c2cc3ccccc3s2)o1)c1cc(NC(=O)c2cc(F)c(F)cc2Cl)[nH]n1 [Example 1-77, 5-(2-chloro-4,5-difluoro-benzoylamino)-1H-pyrazole-3-carboxylic acid (5-benzo[b]thiophen-2-yl-[1,3,4]oxadiazol-2-ylmethyl)-amide]",100 to 300
9,"Cc1nnsc1-c1nnc(CNC(=O)c2cc(NC(=O)c3cc(F)c(F)cc3Cl)[nH]n2)o1 [Example 1-78, 5-(2-chloro-4,5-difluoro-benzoylamino)-1H-pyrazole-3-carboxylic acid [5-(4-methyl-[1,2,3]thiadiazol-5-yl)-[1,3,4]oxadiazol-2-ylmethyl]-amide]",< 100
10,"Cc1ncc(CNC(=O)c2cc(NC(=O)c3cc(F)c(F)cc3Cl)[nH]n2)c(-c2cccc(F)c2)n1 [Example 1-79, 5-(2-chloro-4,5-difluoro-benzoylamino)-1H-pyrazole-3-carboxylic acid [4-(3-fluoro-phenyl)-2-methyl-pyrimidin-5-ylmethyl]-amide]",< 100
11,"Cc1nc(C2CC2)ncc1CNC(=O)c1cc(NC(=O)c2cc(F)c(F)cc2Cl)[nH]n1 [Example 1-80, 5-(2-chloro-4,5-difluoro-benzoylamino)-1H-pyrazole-3-carboxylic acid (2-cyclopropyl-4-methyl-pyrimidin-5-ylmethyl)-amide]",< 100

# Next, values leading:
row,IC50 [nM],SMILES
1,< 100,"O=C(NCc1cncnc1C1CC1)c1cc(NC(=O)c2cc(F)c(F)cc2Cl)[nH]n1 [Example 1-81, 5-(2-chloro-4,5-difluoro-benzoylamino)-1H-pyrazole-3-carboxylic acid (4-cyclopropyl-pyrimidin-5-ylmethyl)-amide]"
2,< 100,"O=C(NCc1cnc(C2CC2)nc1C1CC1)c1cc(NC(=O)c2cc(F)c(F)cc2Cl)[nH]n1 [Example 1-82, 5-[2-chloro-4,5-difluoro-benzoylamino)-1H-pyrazole-3-carboxylic acid (2,4-dicyclopropyl-pyrimidin-5-ylmethyl)-amide hydrochloride]"
3,< 100,"Cc1ncc(CNC(=O)c2cc(NC(=O)c3cc(F)c(F)cc3Cl)[nH]n2)c(-c2oc(C)nc2C)n1 [Example 1-83, 5-(2-chloro-4,5-difluoro-benzoylamino)-1H-pyrazole-3-carboxylic acid [4-(2,4-dimethyl-oxazol-5-yl)-2-methyl-pyrimidin-5-ylmethyl]-amide]"
4,< 100,"Cc1cc(-c2nnsc2CNC(=O)c2cc(NC(=O)c3cc(F)c(F)cc3Cl)[nH]n2)c(C)o1 [Example 1-84, 5-(2-chloro-4,5-difluoro-benzoylamino)-1H-pyrazole-3-carboxylic acid [4-(2,5-dimethyl-furan-3-yl)-[1,2,3]thiadiazol-5-ylmethyl]-amide]"
5,< 100,O=C(NCc1nnc(-c2cccc(Cl)c2)s1)c1cc(NC(=O)c2cc(F)c(F)cc2Cl)[nH]n1 [Example 1-85]
6,< 100,"CCc1nc(Cc2nc(C)c(CNC(=O)c3cc(NC(=O)c4cc(F)c(F)cc4Cl)[nH]n3)o2)n[nH]1 [Example 1-86, 5-(2-chloro-4,5-difluoro-benzoylamino)-1H-pyrazole-3-carboxylic acid [2-(5-ethyl-1H-[1,2,4]thiazol-3-ylmethyl)-4-methyl-oxazol-5-ylmethyl]-amide hydrochloride]"
7,< 100,"O=C(NCc1n[nH]c(-c2ccc(Cl)cc2)n1)c1cc(NC(=O)c2cc(F)c(F)cc2Cl)[nH]n1 [Example 1-87, 5-(2-chloro-4,5-difluoro-benzoylamino)-1H-pyrazole-3-carboxylic acid [5-(4-chloro-phenyl)-1H-[1,2,4]triazol-3-ylmethyl]-amide]"
8,< 100,"COc1ccc(Cc2nc(CNC(=O)c3cc(NC(=O)c4cc(F)c(F)cc4Cl)[nH]n3)n[nH]2)cc1OC [Example 1-88, 5-(2-chloro-4,5-difluoro-benzoylamino)-1H-pyrazole-3-carboxylic acid [5-(3,4-dimethoxy-benzyl)-1H-[1,2,4]triazol-3-ylmethyl]-amide]"
9,< 100,"CCOC(=O)c1nc(C)oc1CNC(=O)c1cc(NC(=O)c2cc(F)c(F)cc2C)[nH]n1 [Example 2-1, 5-(4,5-difluoro-2-methyl-benzoylamino)-1H-pyrazole-3-carboxylic acid (4-ethoxycarbonyl-2-methyl-oxazol-5-ylmethyl)-amide]"
10,< 100,"O=C(NCc1ccc(C(=O)O)o1)c1cc(NC(=O)c2cc(F)c(F)cc2Cl)[nH]n1 [Example 3-1, 5-(2-chloro-4,5-difluoro-benzoylamino)-1H-pyrazole-3-carboxylic acid (2-carboxy-furan-5-ylmethyl)-amide]"
11,< 100,"Cc1nc(C(=O)O)sc1CNC(=O)c1cc(NC(=O)c2cc(F)c(F)cc2Cl)[nH]n1 [Example 3-2, sodium 5-({[5-(2-chloro-4,5-difluoro-benzoylamino)-1H-pyrazole-3-carbonyl]-amino}-methyl)-4-methyl-thiazole-2-carboxylate]"
12,100 to 300,"O=C(O)c1cc(CNC(=O)c2cc(NC(=O)c3cc(F)c(F)cc3Cl)[nH]n2)on1 [Example 3-3, 5-(2-chloro-4,5-difluoro-benzoylamino)-1H-pyrazole-3-carboxylic acid (3-carboxy-isoxazol-5-ylmethyl)-amide]"
13,< 100,"Cc1nc(COC(=O)c2ccccc2)c(CNC(=O)c2cc(NC(=O)c3cc(F)c(F)cc3Cl)[nH]n2)o1 [Example 3-5, 5-(2-chloro-4,5-difluoro-benzoylamino)-1H-pyrazole-3-carboxylic acid (4-benzoyloxymethyl-2-methyl-oxazol-5-ylmethyl)-amide]"
14,< 100,"Cc1nc(C(=O)O)c(CNC(=O)c2cc(NC(=O)c3cc(F)c(F)cc3Cl)[nH]n2)o1 [Example 3-6, 5-(2-chloro-4,5-difluoro-benzoylamino)-1H-pyrazole-3-carboxylic acid (4-carboxy-2-methyl-oxazol-5-ylmethyl)-amide]"
15,< 100,"Cc1nc(COCC(=O)O)oc1CNC(=O)c1cc(NC(=O)c2cc(F)c(F)cc2Cl)[nH]n1 [Example 3-7, 5-(2-chloro-4,5-difluoro-benzoylamino)-1H-pyrazole-3-carboxylic acid (2-carboxymethoxymethyl-4-methyl-oxazol-5-ylmethyl)-amide]"
